Reference: article PMC7824769, “Identification of Small Molecules Blocking the Pseudomonas aeruginosa Type III Secretion System Protein PcrV” (Biomolecules, 2021)
“And” between values parts separate entries of the source, which are not always exact repeats. Identical values can stand only once.

Biological target: PcrV (Pseudomonas aeruginosa, UniProt G3XD49)
Experiment: SPR dose-response binding to immobilized PcrV (equilibrium analysis)
Procedure: The SPR screening was performed using the ProteOn^TM XPR36 Protein Interaction Array System (Bio-Rad Laboratories Inc., Hercules, CA, USA) with ProteOn GLH sensor chip (Bio-Rad Laboratories Inc., Hercules, CA, USA), and the results were analyzed with the ProteOn Manager software^TM (Bio-Rad Laboratories Inc., Hercules, CA, USA), Excel 2016 (Microsoft Office), and GraphPad Prism 7.04. All SPR experiments were performed at 25 °C. The multichannel module of the ProteOn system was in the vertical position during protein immobilization. The proteins were attached to the surface of a GLH sensor chip via amine coupling chemistry. A buffer scouting was performed to elucidate the optimal binding conditions of PcrV to the GLH sensor chip. First, channels 1–4 on the chip surface were activated using a 1:1 mixture of 40 mM 1-ethyl-3-(3-dimethylaminopropyl)carbodiimide hydrochloride (EDAC) (Bio-Rad Laboratories Inc., Hercules, CA, USA) and 10 mM N-hydroxysulfosuccinimide (sulfo-NHS, Bio-Rad Laboratories Inc., Hercules, CA, USA) for 300 s at 30 µL/min. Next, the proteins PcrV (33,398.6 Da, 6.37 mg/mL) was diluted in 10 mM NaOAc (pH 4, 4.5, and 5) to 0.05 mg/mL. PcrV was immobilized in channel 1–3 for 540 s at 30 µL/min. Channel 4 was flushed with 10 mM NaOAc (pH 5) for 540 s at 30 µL/min. As deactivating agent, a 1:1 mixture of 1 M ethanolamine and milli-Q filtered water was used. The deactivating solution was injected over all four channels for 300 s at 30 µL/min. Phosphate buffered saline with Tween (PBST; 10 mM phosphate buffer pH 7.4, 140 mM NaCl, 2.7 mM KCl, and 0.05% Tween 20) was used as the running buffer. The final amount of immobilized protein was measured in resonance units (RU) relative to the signal of the baseline prior activation. […] Immobilization of PcrV diluted in sodium acetate of pH 4.5 in one channel and of pH 5 in one channel were used in the beginning of the screening procedure (for plate 1–26). Since no difference was found between the two pH values, the PcrV protein was diluted in sodium acetate at pH 5 only (in two channels) from plate 27 and the rest of the screen. The immobilization procedure for the screening was performed as described above with the addition that the control protein carbonic anhydrase isoenzyme II from bovine erythrocytes (CAII, Sigma-Aldrich, article number 2522) was immobilized in one channel that was activated and deactivated as described above. CAII (1 mg/mL in PBS) was deactivated when diluted in 10 mM sodium acetate (pH 4) to 0.05 mg/mL. Immobilization level of the deactivated CAII was 18,000 RU. Deactivated CAII was used as a control protein according to the recommendations by the ProteOn manufacturer (Bio-Rad Laboratories Inc., Hercules, CA, USA). As running buffer, we employed PBS (pH 7.4, 0.05% Tween 20).
First, the PcrV protein was immobilized in two channels as described above while keeping a blank channel which was activated and deactivated as described above. The multichannel module of the ProteOn system was in horizontal position during the small molecule interaction studies. They were serially diluted to (400,) 200, 100, 50, 25, 12.5, 6.25, and (3.125); or 100, 50, 25, and 12.5 µM; or 100, 66.7, 44.4, 29.6, 19.7, and 13.2 µM in PBST (0.05% Tween 20) with a total concentration of 5% DMSO in 96-well plates. The running buffer was PBST (0.05% Tween 20) containing 5% DMSO. The analytes were injected at a flowrate of 100 µL/min, contact time was 60 s, and dissociation time was 60–120 s. Solvent correction was performed continuously during the experiments to account for bulk response of DMSO. The data was then baseline-aligned, processed by channel referencing with the blank channel, and solvent-corrected. The equilibrium dissociation constant (KD) values were determined from equilibrium analysis in the ProteOn Manager software^TM. Solubility problems frequently hampered KD determination since the small molecules could not always be dissolved in concentrations high enough to reach a plateau. […]

[1] = KD ± standard error of KD (Table S1), single experiment, standard error from ProteOn Manager software
[2] = SPR KD, equilibrium analysis, mean ± SD of three or more independent experiments, individual values where n < 3, 25 °C, PBST 5% DMSO

Chain of PcrV (G3XD49 entry or part of it): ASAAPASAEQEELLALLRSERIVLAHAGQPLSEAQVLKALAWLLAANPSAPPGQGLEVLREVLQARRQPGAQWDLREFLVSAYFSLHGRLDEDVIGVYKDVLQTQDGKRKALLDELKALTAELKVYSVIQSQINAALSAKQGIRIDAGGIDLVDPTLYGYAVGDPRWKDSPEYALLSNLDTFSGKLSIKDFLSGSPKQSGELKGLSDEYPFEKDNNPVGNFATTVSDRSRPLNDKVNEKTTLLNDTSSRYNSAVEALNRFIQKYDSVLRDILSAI

For `Cc1c(Br)ccc(OC[C@@H]2C[C@H]2C(=O)O)c1C` (relative stereo) [Compound 32], the Kd [1] was 61.1 ± 16.9 µM, the Kd [2] was ~60 µM and 61 to 63 µM and 61 µM and the “Rmax (Table S1)” value (single experiment) was 81.8.
With `Cc1c(Br)ccc(OC[C@@H]2C[C@@H]2C(=O)O)c1C` (relative stereo) [Compound 33] the Kd [1] was 59.5 ± 11.1 µM, the Kd [2] was ~60 µM and 61 to 63 µM and 63 µM and the “Rmax (Table S1)” value (single experiment) was 76.8.
With `Cc1c(Br)ccc(OCCCC(=O)O)c1C` [Compound H1] the Kd (KD (equilibrium analysis, Figure 3B), one representative experiment, binding levels at 45-55 s) was 98.3 µM, the Kd [2] was < 150 µM and 106 µM and the “Rmax (equilibrium analysis, Figure 3B)” value (one representative experiment) was 71.3 RU.
